Experimental data reported in the NIST ThermoML archive (doi:10.1021/je049586l).
± gives the expanded uncertainty stated by the source.

Assay: molar enthalpy of vaporization or sublimation
Settings: Crystal, Static calorimetry

A molar enthalpy (492 K) of 46.5 ± 1.29 kcal/mol was found for O=C(O)c1ccc(C(=O)O)nc1 [2,5-pyridinedicarboxylic acid] in this work.
A molar enthalpy (385 K) of 31.1 ± 1.82 kcal/mol was found for COC(=O)c1cccc(C(=O)OC)n1 [2,6-pyridinedicarboxylic acid, dimethyl ester] in this work.
A molar enthalpy (494 K) of 40.2 ± 2.63 kcal/mol was found for O=C(O)c1cccc(C(=O)O)n1 [pyridine-2,6-dicarboxylic acid] in this work.
